Measured values from US7728106B2, “HIV-1 glycopeptides and derivatives; preparation and applications thereof” (University of Maryland Biotechnology Institute, priority 2005, dated 2010).

How the values were obtained:
furin = target: T1, furin (Homo sapiens, UniProt P09958); assay: Stability toward furin digestion; type: in vitro ADME; conditions: 40 μM peptide, phosphate buffer pH 7.0, 10 units furin, 16 hours, 30° C.; HPLC; FIG. 7A
T1 construct: purchased Sigma
Procedure: To test this, a quick experiment was performed on the resistance of the synthetic V3 glycopeptides against different proteases. The protease furin was reported to be able to cleave the V3 domain of gp120 at the sequence 302-312 [134-136]. Therefore, the stability of the synthetic glycopeptides toward furin digestion was initially examined. The enzyme was obtained from Sigma and the digestion was monitored by HPLC and ESI-MS analysis.
(§1) FIG. 7A is a graph for digestion with furin, under reaction conditions involving a solution of each peptide (40 μM) in a phosphate buffer (pH 7.0, total 30 μl) incubated with 10 units of furin (Sigma; a unit being defined by the amount of furin that hydrolyzes one pmol substrate in 1 minute under the optimal condition) for 16 hours at 30° C., and the remaining starting peptide was quantified by HPLC and confirmed by ESI-MS determination. FIG. 7B is a graph for digestion with pronase under reaction conditions involving a solution of each peptide (40 μM) in a phosphate buffer (pH 7.4, total 100 μl) incubated with 125 ng of pronase (Sigma) for 40 minutes at 30° C., and the remaining starting peptide was quantified by HPLC and confirmed by ESI-MS determination.
(§2) Next, the stability of the V3 glycopeptides against pronase digestion was tested. The pronase (Actinase E, Sigma) is a mixture of at least three proteolytic activities.

pronase (Actinase E) = assay: Stability toward pronase digestion; type: in vitro ADME; conditions: 40 μM peptide, phosphate buffer pH 7.4, 125 ng pronase, 40 minutes, 30° C.; HPLC; FIG. 7B
Procedure: as §1, §2

T1 sequence (P09958 108-794, species assumed): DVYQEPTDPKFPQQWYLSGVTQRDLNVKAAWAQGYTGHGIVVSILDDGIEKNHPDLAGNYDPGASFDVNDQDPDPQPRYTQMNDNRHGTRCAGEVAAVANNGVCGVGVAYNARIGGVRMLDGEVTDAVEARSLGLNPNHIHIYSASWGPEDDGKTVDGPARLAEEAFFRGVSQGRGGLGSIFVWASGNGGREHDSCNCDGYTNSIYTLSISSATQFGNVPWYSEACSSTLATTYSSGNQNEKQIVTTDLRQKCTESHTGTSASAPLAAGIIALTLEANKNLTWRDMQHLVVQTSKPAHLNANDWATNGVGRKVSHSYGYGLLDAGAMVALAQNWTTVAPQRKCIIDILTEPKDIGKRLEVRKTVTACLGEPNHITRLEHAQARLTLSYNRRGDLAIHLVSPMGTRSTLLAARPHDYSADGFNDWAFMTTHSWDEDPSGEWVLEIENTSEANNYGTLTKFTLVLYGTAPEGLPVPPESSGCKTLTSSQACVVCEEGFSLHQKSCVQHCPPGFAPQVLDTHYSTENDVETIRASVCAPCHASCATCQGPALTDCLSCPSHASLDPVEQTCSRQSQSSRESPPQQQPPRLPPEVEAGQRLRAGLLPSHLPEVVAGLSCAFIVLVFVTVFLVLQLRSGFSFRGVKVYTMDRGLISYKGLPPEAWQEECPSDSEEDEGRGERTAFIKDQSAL

CC[C@H](C)[C@@H]1NC(=O)[C@H](CCCCN)NC(=O)CNC(=O)[C@H]([C@@H](C)CC)NC(=O)[C@H]([C@@H](C)O)NC(=O)[C@H](C(C)C)NC(=O)[C@H](Cc2ccccc2)NC(=O)[C@H](C)NC(=O)[C@H](CCCNC(=N)N)NC(=O)CNC(=O)[C@@H]2CCCN2C(=O)CNC(=O)[C@H](CCCNC(=N)N)NC(=O)[C@H](CCC(N)=O)NC(=O)[C@H]([C@@H](C)CC)NC(=O)[C@H](CCCNC(=N)N)NC(=O)[C@H]([C@@H](C)CC)NC(=O)[C@H](CCCNC(=N)N)NC(=O)[C@H](CCCCN)NC(=O)[C@H](CCCNC(=N)N)NC(=O)[C@H]([C@@H](C)O)NC(=O)[C@H](CC(N)=O)NC(=O)[C@H](CC(N)=O)NC(=O)[C@H](CC(N)=O)NC(=O)[C@@H]2CCCN2C(=O)[C@H](CCCNC(=N)N)NC(=O)[C@H]([C@@H](C)O)NC(=O)[C@@H](NC(=O)[C@H](CC(=O)N[C@@H]2O[C@H](CO)[C@@H](O[C@@H]3O[C@H](CO)[C@@H](O[C@@H]4O[C@H](CO[C@H]5O[C@H](CO)[C@@H](O)[C@H](O)[C@@H]5O)[C@@H](O)[C@H](O[C@H]5O[C@H](CO)[C@@H](O)[C@H](O)[C@@H]5O)[C@@H]4O)[C@H](O)[C@H]3NC(C)=O)[C@H](O)[C@H]2NC(C)=O)NC(=O)[C@@H](NC(=O)[C@H](CCC(=O)O)NC(=O)[C@@H](NC(=O)[C@H](CO)NC(=O)[C@@H](N)[C@@H](C)O)C(C)C)[C@@H](C)CC)CSSC[C@@H](C(=O)N[C@@H](CC(=O)N[C@@H]2O[C@H](CO)[C@@H](O[C@@H]3O[C@H](CO)[C@@H](O[C@@H]4O[C@H](CO[C@H]5O[C@H](CO)[C@@H](O)[C@H](O)[C@@H]5O)[C@@H](O)[C@H](O[C@H]5O[C@H](CO)[C@@H](O)[C@H](O)[C@@H]5O)[C@@H]4O)[C@H](O)[C@H]3NC(C)=O)[C@H](O)[C@H]2NC(C)=O)C(=O)N[C@H](C(=O)N[C@@H](CO)C(=O)N[C@@H](CCCNC(=N)N)C(=O)N[C@@H](C)C(N)=O)[C@@H](C)CC)NC(=O)[C@H](Cc2c[nH]cn2)NC(=O)[C@H](C)NC(=O)[C@H](CCC(N)=O)NC(=O)[C@H](CCCNC(=N)N)NC(=O)[C@H](CCSC)NC(=O)[C@H](CC(N)=O)NC(=O)CNC1=O [HB-V3-(G2M3)2]
stability toward furin digestion (remaining starting peptide) (furin): most stable | stability toward pronase digestion (remaining starting peptide) (pronase (Actinase E)): most stable
